According to US20230085307A1, “PYRIDAZINONE COMPOUND AND HERBICIDE” (NISSAN CHEMICAL CORPORATION, priority 2019, published 2023):

Experiments:
wild oat [1] = experiment: Test Example 4: herbicidal effect by soil treatment (Table 19, symbol I); type: in vivo, wild oat (Avena fatua); settings: amount of applied herbicide 320 g/ha
Summary of the method: (§1)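 Three weeks of greenhouse growth at 25° C. to 30° C. followed a uniform surface spray of water-diluted emulsion at a predetermined herbicide amount. Seeds had been sown beforehand under about 1.5 cm of sterilized diluvial soil. Grading followed criteria set out in an earlier test.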

southern crabgrass [2] = experiment: Test Example 4: herbicidal effect by soil treatment (Table 19, symbol F); type: in vivo, southern crabgrass (Digitaria ciliaris); settings: amount of applied herbicide 320 g/ha
Summary of the method: as §1

false cleavers [3] = experiment: Test Example 5: herbicidal effect by foliage application, plastic box (Table 20, symbol Q); type: in vivo, false cleavers (Galium spurium); settings: foliage application, 320 g/ha
Summary of the method: (§2)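 Plants sown in sterilized diluvial soil and grown 14 days in a greenhouse at 25° C to 30° C, then sprayed on the foliage with the compound's emulsion diluted in water to a predetermined herbicide amount. Injury to weeds and crops scored three weeks after application on a visual rating scale.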

persian speedwell [4] = experiment: Test Example 4: herbicidal effect by soil treatment (Table 19, symbol R); type: in vivo, Persian speedwell (Veronica persica); settings: amount of applied herbicide 320 g/ha
Summary of the method: as §1

Italian ryegrass [5] = experiment: Test Example 4: herbicidal effect by soil treatment (Table 19, symbol K); type: in vivo, Italian ryegrass (Lolium multiflorum); settings: amount of applied herbicide 320 g/ha
Summary of the method: as §1

redroot pigweed [6] = experiment: Test Example 5: herbicidal effect by foliage application, plastic box (Table 20, symbol N); type: in vivo, redroot pigweed (Amaranthus retroflexus); settings: foliage application, 320 g/ha
Summary of the method: as §2

redroot pigweed [7] = experiment: Test Example 4: herbicidal effect by soil treatment (Table 19, symbol N); type: in vivo, redroot pigweed (Amaranthus retroflexus); settings: amount of applied herbicide 320 g/ha
Summary of the method: as §1

windgrass [8] = experiment: Test Example 5: herbicidal effect by foliage application, plastic box (Table 20, symbol L); type: in vivo, windgrass (Apera spica-venti); settings: foliage application, 320 g/ha
Summary of the method: as §2

velvetleaf [9] = experiment: Test Example 5: herbicidal effect by foliage application, plastic box (Table 20, symbol M); type: in vivo, velvetleaf (Abutilon theophrasti); settings: foliage application, 320 g/ha
Summary of the method: as §2

green foxtail [10] = experiment: Test Example 4: herbicidal effect by soil treatment (Table 19, symbol G); type: in vivo, green foxtail (Setaria viridis); settings: amount of applied herbicide 320 g/ha
Summary of the method: as §1

false cleavers [11] = experiment: Test Example 4: herbicidal effect by soil treatment (Table 19, symbol Q); type: in vivo, false cleavers (Galium spurium); settings: amount of applied herbicide 320 g/ha
Summary of the method: as §1

wild oat [12] = experiment: Test Example 5: herbicidal effect by foliage application, plastic box (Table 20, symbol I); type: in vivo, wild oat (Avena fatua); settings: foliage application, 320 g/ha
Summary of the method: as §2

southern crabgrass [13] = experiment: Test Example 5: herbicidal effect by foliage application, plastic box (Table 20, symbol F); type: in vivo, southern crabgrass (Digitaria ciliaris); settings: foliage application, 320 g/ha
Summary of the method: as §2

blackgrass [14] = experiment: Test Example 4: herbicidal effect by soil treatment (Table 19, symbol J); type: in vivo, blackgrass (Alopecurus myosuroides); settings: amount of applied herbicide 320 g/ha
Summary of the method: as §1

rice flat sedge = experiment: Test Example 3: herbicidal effect by foliage application, Wagner pot (Table 18, symbol E); type: in vivo, rice flat sedge (Cyperus iria); settings: amount of applied herbicide 320 g/ha
Summary of the method: (§3)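 Plants were sown in alluvial soil held under 0.1–0.5 cm standing water and grown 14 days in a greenhouse at 25–30 °C. An emulsifiable formulation, water-diluted to the set dose, was then sprayed onto the foliage, and effects were scored three weeks later using previously defined criteria.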

windgrass [15] = experiment: Test Example 4: herbicidal effect by soil treatment (Table 19, symbol L); type: in vivo, windgrass (Apera spica-venti); settings: amount of applied herbicide 320 g/ha
Summary of the method: as §1

chickweed [16] = experiment: Test Example 5: herbicidal effect by foliage application, plastic box (Table 20, symbol P); type: in vivo, common chickweed (Stellaria media); settings: foliage application, 320 g/ha
Summary of the method: as §2

blackgrass [17] = experiment: Test Example 5: herbicidal effect by foliage application, plastic box (Table 20, symbol J); type: in vivo, blackgrass (Alopecurus myosuroides); settings: foliage application, 320 g/ha
Summary of the method: as §2

barnyard grass [18] = experiment: Test Example 5: herbicidal effect by foliage application, plastic box (Table 20, symbol H); type: in vivo, barnyard grass (Echinochloa crus-galli); settings: foliage application, 320 g/ha
Summary of the method: as §2

green foxtail [19] = experiment: Test Example 5: herbicidal effect by foliage application, plastic box (Table 20, symbol G); type: in vivo, green foxtail (Setaria viridis); settings: foliage application, 320 g/ha
Summary of the method: as §2

lambsquarters [20] = experiment: Test Example 5: herbicidal effect by foliage application, plastic box (Table 20, symbol O); type: in vivo, lambsquarters (Chenopodium album); settings: foliage application, 320 g/ha
Summary of the method: as §2

velvetleaf [21] = experiment: Test Example 4: herbicidal effect by soil treatment (Table 19, symbol M); type: in vivo, velvetleaf (Abutilon theophrasti); settings: amount of applied herbicide 320 g/ha
Summary of the method: as §1

persian speedwell [22] = experiment: Test Example 5: herbicidal effect by foliage application, plastic box (Table 20, symbol R); type: in vivo, Persian speedwell (Veronica persica); settings: foliage application, 320 g/ha
Summary of the method: as §2

Italian ryegrass [23] = experiment: Test Example 5: herbicidal effect by foliage application, plastic box (Table 20, symbol K); type: in vivo, Italian ryegrass (Lolium multiflorum); settings: foliage application, 320 g/ha
Summary of the method: as §2

Chinese sprangletop = experiment: Test Example 3: herbicidal effect by foliage application, Wagner pot (Table 18, symbol D); type: in vivo, chinese sprangletop (Leptochloa chinensis); settings: amount of applied herbicide 320 g/ha
Summary of the method: as §3

barnyard grass [24] = experiment: Test Example 3: herbicidal effect by foliage application, Wagner pot (Table 18, symbol H); type: in vivo, barnyard grass (Echinochloa crus-galli); settings: amount of applied herbicide 320 g/ha
Summary of the method: as §3

chickweed [25] = experiment: Test Example 4: herbicidal effect by soil treatment (Table 19, symbol P); type: in vivo, common chickweed (Stellaria media); settings: amount of applied herbicide 320 g/ha
Summary of the method: as §1

barnyard grass [26] = experiment: Test Example 4: herbicidal effect by soil treatment (Table 19, symbol H); type: in vivo, barnyard grass (Echinochloa crus-galli); settings: amount of applied herbicide 320 g/ha
Summary of the method: as §1

lambsquarters [27] = experiment: Test Example 4: herbicidal effect by soil treatment (Table 19, symbol O); type: in vivo, lambsquarters (Chenopodium album); settings: amount of applied herbicide 320 g/ha
Summary of the method: as §1

[28] = evaluated three weeks after application

COc1ccc(F)cc1-c1sc2ccc(C)cc2c1-c1c(O)c(C)nn(C)c1=O [2-150]
I: wild oat, herbicidal effect rating (wild oat [1]): 0 (Herbicidal rate of 5% or less (almost no effect))
F: southern crabgrass, herbicidal effect rating (southern crabgrass [2]): 0 (Herbicidal rate of 5% or less (almost no effect))
herbicidal effect on Q: false cleavers (criteria 0-5) (false cleavers [3]; [28]): 4 (Herbicidal rate of 70% or more and less than 90%)
R: persian speedwell, herbicidal effect rating (persian speedwell [4]): 5 (Herbicidal rate of 90% or more (almost completely withered))
K: Italian ryegrass, herbicidal effect rating (Italian ryegrass [5]): 0 (Herbicidal rate of 5% or less (almost no effect))
herbicidal effect on N: redroot pigweed (criteria 0-5) (redroot pigweed [6]; [28]): 5 (Herbicidal rate of 90% or more (almost completely withered))
N: redroot pigweed, herbicidal effect rating (redroot pigweed [7]): 3 (Herbicidal rate of 40% or more and less than 70%)
herbicidal effect on L: windgrass (criteria 0-5) (windgrass [8]; [28]): 3 (Herbicidal rate of 40% or more and less than 70%)
herbicidal effect on M: velvetleaf (criteria 0-5) (velvetleaf [9]; [28]): 4 (Herbicidal rate of 70% or more and less than 90%)
G: green foxtail, herbicidal effect rating (green foxtail [10]): 0 (Herbicidal rate of 5% or less (almost no effect))
Q: false cleavers, herbicidal effect rating (false cleavers [11]): 0 (Herbicidal rate of 5% or less (almost no effect))
herbicidal effect on I: wild oat (criteria 0-5) (wild oat [12]; [28]): 1 (Herbicidal rate of 5% or more and less than 20%)
herbicidal effect on F: southern crabgrass (criteria 0-5) (southern crabgrass [13]; [28]): 0 (Herbicidal rate of 5% or less (almost no effect))
J: blackgrass, herbicidal effect rating (blackgrass [14]): 0 (Herbicidal rate of 5% or less (almost no effect))
herbicidal effect on E: rice flat sedge (rice flat sedge): 5 (Herbicidal rate of 90% or more (almost completely withered))
L: windgrass, herbicidal effect rating (windgrass [15]): 0 (Herbicidal rate of 5% or less (almost no effect))
herbicidal effect on P: chickweed (criteria 0-5) (chickweed [16]; [28]): 5 (Herbicidal rate of 90% or more (almost completely withered))
herbicidal effect on J: blackgrass (criteria 0-5) (blackgrass [17]; [28]): 4 (Herbicidal rate of 70% or more and less than 90%)
herbicidal effect on H: barnyard grass (criteria 0-5) (barnyard grass [18]; [28]): 0 (Herbicidal rate of 5% or less (almost no effect))
herbicidal effect on G: green foxtail (criteria 0-5) (green foxtail [19]; [28]): 0 (Herbicidal rate of 5% or less (almost no effect))
herbicidal effect on O: lambsquarters (criteria 0-5) (lambsquarters [20]; [28]): 3 (Herbicidal rate of 40% or more and less than 70%)
M: velvetleaf, herbicidal effect rating (velvetleaf [21]): 1 (Herbicidal rate of 5% or more and less than 20%)
herbicidal effect on R: persian speedwell (criteria 0-5) (persian speedwell [22]; [28]): 5 (Herbicidal rate of 90% or more (almost completely withered))
herbicidal effect on K: Italian ryegrass (criteria 0-5) (Italian ryegrass [23]; [28]): 3 (Herbicidal rate of 40% or more and less than 70%)
herbicidal effect on D: Chinese sprangletop (Chinese sprangletop): 2 (Herbicidal rate of 20% or more and less than 40%)
herbicidal effect on H: barnyard grass (barnyard grass [24]): 4 (Herbicidal rate of 70% or more and less than 90%)
P: chickweed, herbicidal effect rating (chickweed [25]): 4 (Herbicidal rate of 70% or more and less than 90%)
H: barnyard grass, herbicidal effect rating (barnyard grass [26]): 0 (Herbicidal rate of 5% or less (almost no effect))
O: lambsquarters, herbicidal effect rating (lambsquarters [27]): 2 (Herbicidal rate of 20% or more and less than 40%)

Cc1nn(C)c(=O)c(-c2c(-c3ccc(F)cc3)sc3cc(F)ccc23)c1O [3-001]
herbicidal effect, I: wild oat (wild oat [1]): 4 (Herbicidal rate of 70% or more and less than 90%)
herbicidal effect, F: southern crabgrass (southern crabgrass [2]): 5 (Herbicidal rate of 90% or more (almost completely withered))
Q: false cleavers, herbicidal effect grade (false cleavers [3]; three weeks after application): 5 (Herbicidal rate of 90% or more (almost completely withered))
herbicidal effect, R: persian speedwell (persian speedwell [4]): 4 (Herbicidal rate of 70% or more and less than 90%)
herbicidal effect, K: Italian ryegrass (Italian ryegrass [5]): 5 (Herbicidal rate of 90% or more (almost completely withered))
N: redroot pigweed, herbicidal effect grade (redroot pigweed [6]; three weeks after application): 5 (Herbicidal rate of 90% or more (almost completely withered))
herbicidal effect, N: redroot pigweed (redroot pigweed [7]): 5 (Herbicidal rate of 90% or more (almost completely withered))
L: windgrass, herbicidal effect grade (windgrass [8]; three weeks after application): 5 (Herbicidal rate of 90% or more (almost completely withered))
M: velvetleaf, herbicidal effect grade (velvetleaf [9]; three weeks after application): 5 (Herbicidal rate of 90% or more (almost completely withered))
herbicidal effect, G: green foxtail (green foxtail [10]): 4 (Herbicidal rate of 70% or more and less than 90%)
herbicidal effect, Q: false cleavers (false cleavers [11]): 3 (Herbicidal rate of 40% or more and less than 70%)
I: wild oat, herbicidal effect grade (wild oat [12]; three weeks after application): 5 (Herbicidal rate of 90% or more (almost completely withered))
F: southern crabgrass, herbicidal effect grade (southern crabgrass [13]; three weeks after application): 5 (Herbicidal rate of 90% or more (almost completely withered))
herbicidal effect, J: blackgrass (blackgrass [14]): 3 (Herbicidal rate of 40% or more and less than 70%)
herbicidal effect on E: rice flat sedge (rice flat sedge): 5 (Herbicidal rate of 90% or more (almost completely withered))
herbicidal effect, L: windgrass (windgrass [15]): 4 (Herbicidal rate of 70% or more and less than 90%)
P: chickweed, herbicidal effect grade (chickweed [16]; three weeks after application): 5 (Herbicidal rate of 90% or more (almost completely withered))
J: blackgrass, herbicidal effect grade (blackgrass [17]; three weeks after application): 5 (Herbicidal rate of 90% or more (almost completely withered))
H: barnyard grass, herbicidal effect grade (barnyard grass [18]; three weeks after application): 5 (Herbicidal rate of 90% or more (almost completely withered))
G: green foxtail, herbicidal effect grade (green foxtail [19]; three weeks after application): 5 (Herbicidal rate of 90% or more (almost completely withered))
O: lambsquarters, herbicidal effect grade (lambsquarters [20]; three weeks after application): 5 (Herbicidal rate of 90% or more (almost completely withered))
herbicidal effect, M: velvetleaf (velvetleaf [21]): 0 (Herbicidal rate of 5% or less (almost no effect))
R: persian speedwell, herbicidal effect grade (persian speedwell [22]; three weeks after application): 5 (Herbicidal rate of 90% or more (almost completely withered))
K: Italian ryegrass, herbicidal effect grade (Italian ryegrass [23]; three weeks after application): 5 (Herbicidal rate of 90% or more (almost completely withered))
herbicidal effect on D: Chinese sprangletop (Chinese sprangletop): 5 (Herbicidal rate of 90% or more (almost completely withered))
herbicidal effect on H: barnyard grass (barnyard grass [24]): 5 (Herbicidal rate of 90% or more (almost completely withered))
herbicidal effect, P: chickweed (chickweed [25]): 5 (Herbicidal rate of 90% or more (almost completely withered))
herbicidal effect, H: barnyard grass (barnyard grass [26]): 4 (Herbicidal rate of 70% or more and less than 90%)
herbicidal effect, O: lambsquarters (lambsquarters [27]): 5 (Herbicidal rate of 90% or more (almost completely withered))
